# Laboratory results as given in paper PMC12511766 (Frontiers in Pharmacology, 2025).
# Read-outs that look alike come from different tables or passages of the source.
# Legend:
# CYP3A [1] = conditions: 2021, cited from earlier work
# [2] = Adverse events (NCI CTCAE v5.0), Phase Ib study; type: in vivo, human; conditions: for Patients with AE leading to discontinuation of the drug / Patients with AE leading to dose interruption of the drug / Patients with AE leading to dose reduction of the drug / Patients with AE related to the drug: all enrolled patients
# Source text: Safety assessments consisted of monitoring and recording adverse events, including serious adverse events and adverse events of special interest, performing protocol-specified safety laboratory assessments, measuring protocol-specified vital signs, and conducting other protocol-specified tests that are deemed critical to the safety evaluation of the study. The adverse event severity grading scale for the NCI Common Terminology Criteria for Adverse Events (CTCAE) v5.0 was used for assessing adverse event severity. If daily dosing of ipatasertib was not tolerated, dosing with food might be used to alleviate gastrointestinal symptoms. […] For ipatasertib, with a starting dose of 300 mg, the first dose reduction was to 200 mg and the second down to 100 mg.
# CYP3A [3] = system: CYP3A; design: method as in Jing et al., 2022; conditions: ipatasertib 300 mg in the presence of palbociclib; ref Jing et al., 2022; cited from earlier work
# CYP3A [4] = conditions: 2021, cited from earlier work; remark: listed apart in the source
# [5] = cited from earlier work
# [6] = Steady-state plasma PK of ipatasertib and M1 (LC-MS/MS, noncompartmental analysis), Phase Ib study; type: in vivo, human; conditions: for Tmax: 300 mg, median (range)
# Description: From Cycle 2 Day 1 onward, ipatasertib was taken orally and daily on Days 1–21 of each 28-day cycle. […] Additionally, fulvestrant 500 mg was given via intramuscular (IM) injection on Days 1 and 15 of Cycle 1, and then on Day 1 of each subsequent 28-day cycle. […] The initial safety follow-up extended through at least Day 15 of Cycle two for all patients. […] PK samples for ipatasertib and its major metabolite, M1 (G-037720), were collected at specified time points: 15 min pre-dose, 0.5, 1, 2, 3, 4, 6 h post-dose on Day 1 of Cycle 1, and Day 15 of Cycle 1, as well as 15 min pre-dose on Day 15 of Cycle 2 and 15 min pre-dose and 2 h post-dose on Day 15 of Cycle 3. […] The plasma concentrations of ipatasertib and its metabolite M1 was determined using a previously reported, validated liquid chromatography-tandem mass spectrometry assay (LC-MS/MS) ([Sutaria et al., 2022]). […] The sample analyses were performed at Labcorp Early Drug Development Laboratories, Inc. (Madison, WI, Unitd States) using a Shimadzu LC instrument equipped with an Agilent Polaris C8-A column (2.0 × 50 mm, 5 μm) interfaced with a Sciex API 4000 mass spectrometer operated in positive electrospray ionization mode. […] Noncompartmental PK analysis (NCA) was performed using the commercial software Phoenix WinNonlin (Certara Unitd States, Inc., Princeton, NJ, Unitd States, Version 8.1) to characterize the PK parameters of ipatasertib and M1 including maximal concentration (Cmax), time to maximal concentration (Tmax), area under the curve from time 0 to the last measurable concentration (AUC0-t). […] Non-compartmental PK analyses were performed using Phoenix(R) WinNonlin (Version 8.3, Certara). […] A linear mixed model with a fixed effect for treatment and a random effect for patients was used on the natural log-transformed PK parameters.
# [7] = Palbociclib predose plasma concentrations (LC-MS/MS), Phase Ib study; type: in vivo, human; conditions: for Palbociclib plasma concentration, C2D15 predose / Palbociclib plasma concentration, C1D15 predose / Palbociclib plasma concentration, C3D15 predose: 125 mg, Geomean (geoCV%)
# [8] = Palbociclib PK parameters estimated with established popPK model; type: in vivo, human
# [9] = ipatasertib 100 mg single dose with itraconazole, ref Sane et al.
# [10] = 300 mg QD with 125 mg palbociclib and fulvestrant vs alone
# [11] = C1D15 (with palbociclib and fulvestrant) / C1D1 (ipatasertib alone)
# [12] = human, plasma, oral, C1D1, ipatasertib 300 mg QD alone, N = 9, geometric mean (%geoCV)
# [13] = ipatasertib coadministered with palbociclib and fulvestrant vs ipatasertib alone
# [14] = additional patients for safety evaluation, N 9
# [15] = palbociclib administered alone, ref U.S. Food and Drug Administration, 2014
compound,measurement,setting,value
C[C@]12CC[C@@H]3c4ccc(O)cc4C[C@@H](CCCCCCCCC[S+]([O-])CCCC(F)(F)C(F)(F)F)[C@H]3[C@@H]1CC[C@@H]2O (some centres unmarked) [Fulvestrant],CYP3A inhibition / induction classification,CYP3A [1]; ref U.S. Food and Drug Administration,not an inhibitor or inducer of CYP3A
same,Patients with AE leading to discontinuation of the drug,[2],0 Number of patients (%)
same,Patients with AE leading to dose interruption of the drug,[2],5 (25%) Number of patients (%)
same,Patients with AE leading to dose reduction of the drug,[2],0 Number of patients (%)
same,Patients with AE related to the drug,[2],16 (80%) Number of patients (%)
same,AE considered related to the drug: anemia,"[2]; triplet regimen, 20 patients",10%
same,AE considered related to the drug: asthenia,"[2]; triplet regimen, 20 patients",15%
same,AE considered related to the drug: hot flush,"[2]; triplet regimen, 20 patients",10%
CC(C)NC[C@@H](C(=O)N1CCN(c2ncnc3c2[C@H](C)C[C@H]3O)CC1)c1ccc(Cl)cc1 [Ipatasertib],PBPK-predicted increase in AUC,CYP3A [3],48%
same,PBPK-predicted increase in Cmax,CYP3A [3],23%
same,Increase in AUC0-∞ with itraconazole,CYP3A [4]; [9],5.45 fold
same,Increase in Cmax with itraconazole,CYP3A [4]; [9],2.26 fold
same,Increase in AUC0-∞ of midazolam,"CYP3A [4]; single dose of ipatasertib 600 mg with midazolam, ref Malhi et al.",2.22 fold
same,CYP3A inhibition classification,"CYP3A [1]; in vitro, ref Malhi et al.",mild to moderate CYP3A inhibitor
same,CYP3A4 substrate classification,CYP3A [1]; ref Sane et al.,sensitive substrate
same,Effective half-life,"[5]; background statement, no reference printed with the sentence",approximately 24 h
same,"AUC0-24,ss","[5]; ipatasertib 400 mg in other clinical studies, ref Yoshida et al., 2021","2,920 ng*hr/mL"
same,Dose proportionality of exposure,"[5]; over the range of 200–800 mg, no reference printed with the sentence",dose-proportional
same,"Increase in AUC0-24,ss",[6]; [10],1.68 fold
same,"Increase in Cmax,ss",[6]; [10],1.49 fold
same,"AUC0-24,ss at 300 mg in presence of palbociclib relative to 400 mg in other clinical studies","[6]; 3,637 vs 2,920 ng*hr/mL",about 1.25 times
same,"AUC0-24,ss geometric mean ratio (GMR) (90% CI)",[6]; [11],"1.68 (1.41, 2.00)"
same,"Cmax,ss geometric mean ratio (GMR) (90% CI)",[6]; [11],"1.49 (1.18, 1.88)"
same,Tmax,"[6]; human, plasma, oral, C1D1, ipatasertib 300 mg QD alone",1 h
same,Tmax,"[6]; human, plasma, oral, C1D15, ipatasertib 300 mg QD with palbociclib and fulvestrant",1.9 h
same,"AUC0-24,ss",[6]; [12],2170 ng·h/mL
same,Cmax,[6]; [12],294 ng/mL
same,"Increase in AUC0-24,ss",[6]; [13],68%
same,"Increase in Cmax,ss",[6]; [13],49%
same,Patients with AE leading to discontinuation of the drug,[2],1 (5%) Number of patients (%)
same,Patients with AE leading to dose interruption of the drug,[2],16 (80%) Number of patients (%)
same,Patients with AE leading to dose reduction of the drug,[2],9 (45%) Number of patients (%)
same,Patients with AE related to the drug,[2],20 (100%) Number of patients (%)
same,AE considered related to the drug: anemia,"[2]; triplet regimen, 20 patients",30%
same,AE considered related to the drug: diarrhea,"[2]; triplet regimen, 20 patients",75%
same,AE considered related to the drug: fatigue,"[2]; triplet regimen, 20 patients",25%
same,AE considered related to the drug: nausea,"[2]; triplet regimen, 20 patients",70%
same,AE considered related to the drug: neutropenia,"[2]; triplet regimen, 20 patients",30%
same,AE considered related to the drug: neutrophil count decreased,"[2]; triplet regimen, 20 patients",25%
same,AE considered related to the drug: platelet count decreased,"[2]; triplet regimen, 20 patients",30%
same,AE considered related to the drug: rash,"[2]; triplet regimen, 20 patients",35%
same,AE considered related to the drug: vomiting,"[2]; triplet regimen, 20 patients",45%
CC(=O)c1c(C)c2cnc(Nc3ccc(N4CCNCC4)cn3)nc2n(C2CCCC2)c1=O [Palbociclib],"Palbociclib plasma concentration, C2D15 predose","[7]; additional patients for safety evaluation, N 6",83.2 (19.4) ng/mL
same,"Palbociclib plasma concentration, C1D15 predose",[7]; [14],73.8 (20.7) ng/mL
same,"Palbociclib plasma concentration, C3D15 predose",[7]; [14],67.5 (51.0) ng/mL
same,"Palbociclib plasma concentration, C1D15 predose","[7]; ipatasertib run-in group, N 9",69.9 (57.2) ng/mL
same,"Palbociclib plasma concentration, C2D15 predose","[7]; ipatasertib run-in group, N 10",76.9 (44.9) ng/mL
same,"Palbociclib plasma concentration, C3D15 predose","[7]; ipatasertib run-in group, N 10",71.5 (43.5) ng/mL
same,"Palbociclib plasma concentration, C2D15 predose","[7]; total, N 16",79.2 (36.4) ng/mL
same,"Palbociclib plasma concentration, C1D15 predose","[7]; total, N 18",71.8 (40.8) ng/mL
same,"Palbociclib plasma concentration, C3D15 predose","[7]; total, N 19",69.6 (45.7) ng/mL
same,Cmin,[7]; palbociclib in this study with ipatasertib and fulvestrant (summary of Table 3),approximately 70 ng/mL
same,"AUC0-24,ss",[5]; [15],1982 ng·h/mL
same,"Cmax,ss",[5]; [15],116 ng/mL
same,Patients with AE leading to discontinuation of the drug,[2],1 (5%) Number of patients (%)
same,Patients with AE leading to dose interruption of the drug,[2],13 (65%) Number of patients (%)
same,Patients with AE leading to dose reduction of the drug,[2],10 (50%) Number of patients (%)
same,Patients with AE related to the drug,[2],20 (100%) Number of patients (%)
same,AE considered related to the drug: anemia,"[2]; triplet regimen, 20 patients",40%
same,AE considered related to the drug: asthenia,"[2]; triplet regimen, 20 patients",25%
same,AE considered related to the drug: diarrhea,"[2]; triplet regimen, 20 patients",30%
same,AE considered related to the drug: nausea,"[2]; triplet regimen, 20 patients",40%
same,AE considered related to the drug: neutropenia,"[2]; triplet regimen, 20 patients",45%
same,AE considered related to the drug: neutrophil count decreased,"[2]; triplet regimen, 20 patients",40%
same,AE considered related to the drug: platelet count decreased,"[2]; triplet regimen, 20 patients",30%
same,AE considered related to the drug: stomatitis,"[2]; triplet regimen, 20 patients",25%
same,AUC over 24 h dosing interval at steady state,"[8]; human, plasma, oral, 125 mg, read-out: AUC0-24,ss (popPK-estimated)",2600 ng·h/mL
same,"Cmax,ss (popPK-estimated)","[8]; palbociclib 125 mg with ipatasertib and fulvestrant, geometric mean (%CV)",124 ng/mL
